Results on 1 compound are retold here after patent US5817840A, “Water soluble taxol derivatives” (The Scripps Research Institute, priority 1997, dated 1998).

Entries after “also recorded” stand apart in the source; their conditions may differ.

Series [1] concerns CHO (normal human mammary). Kind of series: Cytotoxicity (sulphorhodamine B), normal cell line, Table 1B. It is filed as cell-based. The conditions noted are these: Homo sapiens, 72 h.
In series [2] the test system is BALB/c 3T3 (normal mouse embryo). Described as above. The format is cell-based. The conditions noted are these: BALB/c3T3, 72 h.
Method: (§1) The cytotoxicities were determined using the sulphorhodamine B assay method (Skehan, P. et al. J. Nat. Canc. Inst. 82, 1107 (1990)).
For another series, the system named is Capan-1 (pancreatic). Kind of series: Cytotoxicity (sulphorhodamine B), cancer cell line, Table 1B. It is filed as cell-based. Particulars: Homo sapiens, CAPAN-1, 72 h.
The subject of another series is NHDF (normal human skin). Kind of series: Cytotoxicity (sulphorhodamine B), normal cell line, Table 1B. The format is cell-based. The conditions noted are these: 72 h.
The test system of series [3] is RPMI-7666 (normal human PBLs). The series is described as above. It is filed as cell-based. Particulars: 72 h.
Method: as §1
For series [4], the system named is 786-0 (renal cell carcinoma). Put plainly: Cytotoxicity (sulphorhodamine B), cancer cell line, Table 1B. It is filed as cell-based. The conditions noted are these: Homo sapiens, 786-0, 72 h.
Method: as §1
The subject of series [5] is UCLA-P-3 (lung carcinoma). Described as above. The format is cell-based. Particulars: Homo sapiens, UCLA P-3, 72 h.
Method: as §1
Series [6] concerns CHO (Chinese hamster ovary). Put plainly: Cytotoxicity (sulphorhodamine B), normal cell line, Table 1B. The format is cell-based. The conditions noted are these: Cricetulus griseus, 72 h.
Method: as §1
A short description of series [7]: Stability in aqueous media, aprotic organic solvents and solid state. Particulars: aqueous media / pH 7.0 buffer / 20° C. It is filed as physicochemical. The text has this:
The derivatives in which the C-7 hydroxyl group was acetylated were extremely unstable in aqueous media losing the C-7 substituent very rapidly. The stability of the synthesized compounds was examined at various pH's and temperatures. […] Table 1A includes the half-lives of six of these compounds at pH 7.5 and 9. […] This illustrates the ability to fine-tune the rate of release of taxol to a desired set of conditions using simple chemical principles.

A short description of series [8]: Water solubility in D2O by 1H NMR. The conditions noted are these: compared to taxol. As for the experimental part: The solubilities of the synthesized protaxols in D2 O were determined by 1H NMR spectroscopy.
The resulting mixture was centrifuged for 20 minutes and the supernatant saturated solution was analysed by ^1 H NMR spectroscopy using a Bruker AMX-400 instrument and methanol or pyridine as internal standard. The concentration of the compound was determined by comparing several signals with the CH3 signal of methanol or the NCH signal of pyridine.

In series [9] the test system is HL-60 (promyel carcinoma). Put plainly: Cytotoxicity (sulphorhodamine B), cancer cell line, Table 1B. It is filed as cell-based. Particulars: Homo sapiens, HL-60, 72 h.
Method: as §1
Series [10] in a line: Taxol release in human blood plasma at 37° C. The format is in vitro ADME. The protocol:
Protaxol 5 and N-cyclohexylbenzamide (as internal standard) were dissolved in acetonitrile and immediatley added to human plasma or phosphate buffer at pH 7.4. Samples-of protaxol 5 were incubated in each medium for specified times and then extracted with ethyl acetate as described by S. M. Longnecker, et al., Cancer Treat. Rep. 71, 53 (1987). Solvent was removed and the residue dissolved in acetonitrile and analysed by HPLC as already described. The peak areas for compound 5 and taxol were normalized to that of the internal standard using a calibration curve.

In another series the test system is HT-29 (colon carcinoma). Put plainly: Cytotoxicity (sulphorhodamine B), cancer cell line, Table 1B. The format is cell-based. Particulars: Homo sapiens, HT-29, 72 h.
A further series has as its system H322 (lung carcinoma). Described as above. The conditions noted are these: NCI-H322, 72 h. It is filed as cell-based.
In series [11] the test system is PC-3 (prostate carcinoma). Described as above. The format is cell-based. The conditions noted are these: Homo sapiens, 72 h.
Method: as §1
For the next series, the system named is L1210 (mouse leukaemia). Described as above. The format is cell-based. Particulars: L1210, 72 h.
The test system of series [12] is BT-549 (breast carcinoma). The series is described as above. The format is cell-based. The conditions noted are these: Homo sapiens, BT-549, 72 h.
Method: as §1

Method for Capan-1 (pancreatic): as §1
Method for H322 (lung carcinoma): as §1
Method for HT-29 (colon carcinoma): as §1
Method for L1210 (mouse leukaemia): as §1
Method for NHDF (normal human skin): as §1

Turning to `CC(=O)O[C@H]1C(=O)[C@@]2(C)[C@H]([C@H](OC(=O)c3ccccc3)[C@]3(O)C[C@H](OC(=O)[C@H](OC(=O)CS(=O)(=O)CC(=O)O)[C@@H](NC(=O)c4ccccc4)c4ccccc4)C(C)=C1C3(C)C)[C@]1(OC(C)=O)CO[C@@H]1C[C@@H]2O` [Compound 5], the IC50 was 100000 nM in [1]; 10000 nM in [2]; under 1 nM in the series on Capan-1 (pancreatic); 1000 nM in the series on NHDF (normal human skin); 100000 nM in [3]; 1000 nM in [4]. The IC50 in series [5] was under 1 nM; in series [6] it was 100000 nM; in series [9], under 1 nM; with HT-29 (colon carcinoma), under 1 nM; in the series with H322 (lung carcinoma), 1 nM; in series [11], 1000 nM. For the same compound, the IC50 was 10000 nM in the series with L1210 (mouse leukaemia) and under 1 nM in series [12]. In addition, the “stability in aqueous media” value in series [7] was “good solubility and stability properties in aqueous media; also recorded: quite stable”. Further, the “Water solubility (in words)” value in series [8] is listed as “good solubility”. The “taxol release in human blood plasma (in words)” value in [10] (compared to pH 7.4 buffer) was “accelerated release of taxol; also recorded: rapidly releasing taxol”. The same compound registered a half-life in [10] (human blood plasma) of about 1.67 h.

By IC50 is commonly meant the point on the concentration scale where inhibition reaches its midpoint. Read a low IC50 as greater potency in that assay. The half-life is the time needed for the level to fall by half in the phase considered. Low values mean fast loss, high ones slow loss.
